Reference: patent publication US7893266B2, “Detection of cancer cells in vitro using sigma-2 receptor ligands as radiotracers” (Washington University, priority 2003, dated 2011)

Test system: EMT-6 mammary tumors
Test: Biodistribution in EMT-6 BALB/C mice
Type: in vivo
Procedure: As used herein, the term “tumor:background ratio” (i.e., tumor:fat ratio, tumor:muscle ratio, tumor:lung ratio, tumor:blood ratio) refers to the % injected dose/g tissue of the radiotracer in the tumor divided by the % injected dose/g […] in the background tissue (i.e., fat, muscle, lung, blood).
B. Biodistribution Studies of ^11C analogs in Tumor-Bearing Mice. Biodistribution studies were conducted in mature Balb/c mice that were implanted with EMT-6 mammary tumors identified herein as EMT-6 BALB/C mice to create laboratory tumor-bearing mice. The mice were implanted in the scapular region seven days prior to the study. Animals were injected with 100-150 μCi of the ^11C-labeled radiotracer and the animals were sacrificed at 5, 30, and 60 min post-i.v. injection of the radiotracer.
A series of biodistribution studies in tumor-bearing mice were also conducted with [^76Br]8, [^76Br]6, [^125I]8i, and [^125I]6i.

## COc1cc2c(cc1OC)CN(CCCCNC(=O)c1cc(Br)cc(OC)c1O[11CH3])CC2 [[^11C]6]
5 min
  ratio Tumor:blood: 0.40 ± 0.01
  ratio Tumor:fat: 1.82 ± 0.45
  ratio Tumor:heart: 0.80 ± 0.07
  ratio Tumor:lung: 0.47 ± 0.04
  ratio Tumor:muscle: 1.46 ± 0.19
  % ID per gram blood: 7.12 ± 1.01 % ID per gram
  % ID per gram brain: 0.33 ± 0.09 % ID per gram
  % ID per gram fat: 1.66 ± 0.41 % ID per gram
  % ID per gram heart: 3.54 ± 0.31 % ID per gram
  % ID per gram kidney: 19.48 ± 1.46 % ID per gram
  % ID per gram liver: 25.02 ± 3.70 % ID per gram
  % ID per gram lung: 6.01 ± 0.77 % ID per gram
  % ID per gram muscle: 1.94 ± 0.13 % ID per gram
  % ID per gram tumor: 2.82 ± 0.36 % ID per gram
30 min
  ratio Tumor:blood: 0.94 ± 0.05
  ratio Tumor:fat: 2.05 ± 0.57
  ratio Tumor:heart: 1.36 ± 0.12
  ratio Tumor:lung: 0.69 ± 0.08
  ratio Tumor:muscle: 0.59 ± 0.05
  % ID per gram blood: 0.99 ± 0.15 % ID per gram
  % ID per gram brain: 0.10 ± 0.00 % ID per gram
  % ID per gram fat: 0.46 ± 0.19 % ID per gram
  % ID per gram heart: 0.68 ± 0.12 % ID per gram
  % ID per gram kidney: 2.57 ± 0.78 % ID per gram
  % ID per gram liver: 2.48 ± 0.52 % ID per gram
  % ID per gram lung: 1.34 ± 0.23 % ID per gram
  % ID per gram muscle: 1.67 ± 0.14 % ID per gram
  % ID per gram tumor: 0.92 ± 0.10 % ID per gram
1 hour
  ratio Tumor:blood: 1.10 ± 0.11
  ratio Tumor:fat: 2.77 ± 0.82
  ratio Tumor:heart: 1.86 ± 0.64
  ratio Tumor:lung: 0.79 ± 0.30
  ratio Tumor:muscle: 1.84 ± 0.25
  % ID per gram blood: 0.45 ± 0.04 % ID per gram
  % ID per gram brain: 0.03 ± 0.00 % ID per gram
  % ID per gram fat: 0.20 ± 0.08 % ID per gram
  % ID per gram heart: 0.29 ± 0.10 % ID per gram
  % ID per gram kidney: 1.34 ± 0.19 % ID per gram
  % ID per gram liver: 1.19 ± 0.17 % ID per gram
  % ID per gram lung: 0.70 ± 0.26 % ID per gram
  % ID per gram muscle: 0.26 ± 0.07 % ID per gram
  % ID per gram tumor: 0.50 ± 0.09 % ID per gram

## COc1cc2c(cc1OC)CN(CCNC(=O)c1cc(C)ccc1O[11CH3])CC2 [[^11C]9]
5 min
  % ID per gram blood: 5.89 ± 0.29 % ID per gram
  % ID per gram brain: 1.63 ± 0.30 % ID per gram
  % ID per gram fat: 3.07 ± 0.40 % ID per gram
  % ID per gram heart: 2.89 ± 0.36 % ID per gram
  % ID per gram kidney: 44.07 ± 1.67 % ID per gram
  % ID per gram liver: 18.49 ± 2.87 % ID per gram
  % ID per gram lung: 5.69 ± 0.70 % ID per gram
  % ID per gram muscle: 1.75 ± 0.21 % ID per gram
  % ID per gram tumor: 3.10 ± 0.25 % ID per gram
30 min
  % ID per gram blood: 2.62 ± 0.22 % ID per gram
  % ID per gram brain: 0.11 ± 0.01 % ID per gram
  % ID per gram fat: 0.38 ± 0.12 % ID per gram
  % ID per gram heart: 0.76 ± 0.06 % ID per gram
  % ID per gram kidney: 2.77 ± 0.42 % ID per gram
  % ID per gram liver: 3.87 ± 0.67 % ID per gram
  % ID per gram lung: 1.42 ± 0.15 % ID per gram
  % ID per gram muscle: 0.56 ± 0.19 % ID per gram
  % ID per gram tumor: 1.08 ± 0.08 % ID per gram
1 hour
  % ID per gram blood: 1.98 ± 0.35 % ID per gram
  % ID per gram brain: 0.10 ± 0.04 % ID per gram
  % ID per gram fat: 0.26 ± 0.09 % ID per gram
  % ID per gram heart: 0.76 ± 0.46 % ID per gram
  % ID per gram kidney: 1.01 ± 0.12 % ID per gram
  % ID per gram liver: 1.70 ± 0.23 % ID per gram
  % ID per gram lung: 1.39 ± 0.67 % ID per gram
  % ID per gram muscle: 0.41 ± 0.22 % ID per gram
  % ID per gram tumor: 0.85 ± 0.14 % ID per gram

## COc1cc2c(cc1OC)CN(CCNC(=O)c1cc([125I])ccc1OC)CC2 [[^125I]8i]
5 min
  ratio Tumor:blood: 0.42 ± 0.03
  ratio Tumor:fat: 0.84 ± 0.06
  ratio Tumor:heart: 1.04 ± 0.08
  ratio Tumor:lung: 0.50 ± 0.07
  ratio Tumor:muscle: 2.00 ± 0.37
  % ID per gram blood: 6.90 ± 1.29 % ID per gram
  % ID per gram brain: 1.42 ± 0.33 % ID per gram
  % ID per gram fat: 3.46 ± 0.59 % ID per gram
  % ID per gram heart: 2.79 ± 0.35 % ID per gram
  % ID per gram kidney: 54.77 ± 8.42 % ID per gram
  % ID per gram liver: 41.37 ± 7.23 % ID per gram
  % ID per gram lung: 5.95 ± 1.30 % ID per gram
  % ID per gram muscle: 1.47 ± 0.20 % ID per gram
  % ID per gram tumor: 2.91 ± 0.40 % ID per gram
30 min
  ratio Tumor:blood: 0.57 ± 0.12
  ratio Tumor:fat: 1.49 ± 0.65
  ratio Tumor:heart: 1.44 ± 0.18
  ratio Tumor:lung: 0.98 ± 0.16
  ratio Tumor:muscle: 2.06 ± 0.69
  % ID per gram blood: 2.44 ± 0.65 % ID per gram
  % ID per gram brain: 0.20 ± 0.06 % ID per gram
  % ID per gram fat: 1.03 ± 0.44 % ID per gram
  % ID per gram heart: 0.94 ± 0.19 % ID per gram
  % ID per gram kidney: 38.59 ± 2.05 % ID per gram
  % ID per gram liver: 8.20 ± 1.05 % ID per gram
  % ID per gram lung: 1.39 ± 0.29 % ID per gram
  % ID per gram muscle: 0.70 ± 0.25 % ID per gram
  % ID per gram tumor: 1.33 ± 0.13 % ID per gram
1 hour
  ratio Tumor:blood: 0.62 ± 0.09
  ratio Tumor:fat: 1.93 ± 1.87
  ratio Tumor:heart: 1.81 ± 0.32
  ratio Tumor:lung: 0.91 ± 0.24
  ratio Tumor:muscle: 2.14 ± 0.99
  % ID per gram blood: 1.17 ± 0.29 % ID per gram
  % ID per gram brain: 0.06 ± 0.02 % ID per gram
  % ID per gram fat: 0.77 ± 0.66 % ID per gram
  % ID per gram heart: 0.40 ± 0.02 % ID per gram
  % ID per gram kidney: 18.07 ± 2.07 % ID per gram
  % ID per gram liver: 2.87 ± 0.34 % ID per gram
  % ID per gram lung: 0.81 ± 0.20 % ID per gram
  % ID per gram muscle: 0.37 ± 0.23 % ID per gram
  % ID per gram tumor: 0.71 ± 0.12 % ID per gram
2 hour
  ratio Tumor:blood: 0.26 ± 0.08
  ratio Tumor:fat: 2.44 ± 0.77
  ratio Tumor:heart: 1.00 ± 0.27
  ratio Tumor:lung: 0.67 ± 0.14
  ratio Tumor:muscle: 2.17 ± 0.23
  % ID per gram blood: 3.37 ± 1.23 % ID per gram
  % ID per gram brain: 0.09 ± 0.03 % ID per gram
  % ID per gram fat: 0.37 ± 0.13 % ID per gram
  % ID per gram heart: 0.86 ± 0.26 % ID per gram
  % ID per gram kidney: 8.46 ± 1.26 % ID per gram
  % ID per gram liver: 3.47 ± 1.05 % ID per gram
  % ID per gram lung: 1.27 ± 0.37 % ID per gram
  % ID per gram muscle: 0.38 ± 0.06 % ID per gram
  % ID per gram tumor: 0.82 ± 0.09 % ID per gram
